PMC5768343, “A natural inhibitor of kidney-type glutaminase: a withanolide from Physalis pubescens with potent anti-tumor activity” (Oncotarget, 2017)
Read-outs that look alike come from different tables or passages of the source.

Tested on: human pancreatic cancer cells (SW1990)
Test: CCK8 cytotoxicity / proliferation assay, SW1990
Conditions: read-out: IC50 SW1990
Procedure: The SW1990, HT1080, and A375-S2 human tumor cell lines were obtained from ATCC (Manassas, VA, USA). […] SW1990, HT1080, and LO2 cells were cultured in DMEM medium with 10% fetal bovine serum (FBS). All of these cells were cultured at 37°C in a humidified atmosphere with 5% CO2. To estimate cell viability, cells (5000/well) were separately seeded in 96-well plates for 24 h at 37°C in a 5% CO2 incubator. […] All the experiments were performed in triplicate, and the mean absorbance values were calculated. The IC50 values of the compounds were derived from the mean OD values of the triplicate tests versus the drug concentration curves.
Cell proliferation was assessed by incubating them with Cell Counting Kit-8 reagents (Dojindo, Shanghai, China) for 24 h, 48 h, 72 h, 96 h at 37°C and measuring the absorbance at 450 nm. The experiment was performed in triplicate.

Compound	IC50 (CCK8, 48 h) [µM]	IC50 (Homo sapiens, SW1990, 48 h) [µM]
O=C(Cc1ccccc1)Nc1nnc(CCSCCc2nnc(NC(=O)Cc3ccccc3)s2)s1 [BPTES, reference compound]	35.3 ± 0.67	
O=C(Cc1cccc(OC(F)(F)F)c1)Nc1ccc(CCCCc2nnc(NC(=O)Cc3ccccn3)s2)nn1 [CB-839, reference compound]		13.1 ± 0.57
